Measured values from patent US5620954A, “Peptide compositions and uses therefor” (Magainin Pharmaceuticals, Inc., priority 1995, dated 1997).

Assays:
Experiment in all cases: Antibacterial assay, minimal inhibitory concentration (MIC), microtiter broth dilution
Format in all cases: cell-based
E.coli ATCC strain 25922 = conditions: E. coli ATCC 25922; Mueller Hinton broth; 16-20 hours at 37° C.
Source text: (§1) Table I, which follows, indicates the Minimal Inhibitory Concentration (MIC) in μg/ml of Peptides (SEQ ID NO:1) through (SEQ ID NO:27 ) against S. aureus strain ATCC 25923, P. aeruginosa strain ATCC 27853, and E.coli ATCC strain 25922. (Legend) The procedure for the antibacterial assay is based upon the guidelines of the National Committee for Clinical Laboratory Standards, Document M7-T2, Volume 8, No. 8, 1988. Stock solutions of the hereinabove described peptides in accordance with the present invention are prepared at a concentration of 512 μg/ml in sterile deionized distilled water and stored at -70° C. The stock peptide solution is diluted in serial dilutions (1:2) down the wells of a microtiter plate so that the final concentrations of peptides in the wells are 0.25, 0.50, 1, 2, 4, 8, 16, 32, 64, 128, and 256 μg/ml. 1-5×10^5 CFUs/ml of either S. aureus ATCC 25923, E. coli ATCC 25922, or P. aeruginosa ATCC 27853 were added to the wells in full strength Mueller Hinton broth (BBL 11443) from a mid-log culture. The inoculum is standardized spectrophotometrically at 600 nm and is verified by colony counts. The plates are incubated for 16-20 hours at 37° C., and the minimal inhibitory concentration (MIC) for each peptide is determined. Minimal inhibitory concentration is defined as the lowest concentration of peptide which produces a clear well in the microtiter plate.

[1] = system: P. aeruginosa strain ATCC 27853; conditions: P. aeruginosa ATCC 27853; Mueller Hinton broth; 16-20 hours at 37° C.
Source text: as §1

[2] = system: S. aureus strain ATCC 25923; conditions: S. aureus ATCC 25923; Mueller Hinton broth; 16-20 hours at 37° C.
Source text: as §1

SEQ ID NO: 21: biologically active amphiphilic peptide (GLASLLGKALKAALKIGANMLGGSPQQ)
Minimal Inhibitory Concentration (MIC), Activity, E. coli (E.coli ATCC strain 25922): 32 µg/mL
Minimal Inhibitory Concentration (MIC), Activity, P. aeruginosa [1]: 128 µg/mL
Minimal Inhibitory Concentration (MIC), Activity, S. aureus [2]: 64 µg/mL

SEQ ID NO: 22: biologically active amphiphilic peptide (GFGSFLGKALKAALKIGANLLGGTPQQ)
Minimal Inhibitory Concentration (MIC), Activity, E. coli (E.coli ATCC strain 25922): 8,16 μg/ml
Minimal Inhibitory Concentration (MIC), Activity, P. aeruginosa [1]: 16,32 μg/ml
Minimal Inhibitory Concentration (MIC), Activity, S. aureus [2]: 16 µg/mL

SEQ ID NO: 23: biologically active amphiphilic peptide (GFAKFLGKALKAALKIGANLLGGTPQQ)
Minimal Inhibitory Concentration (MIC), Activity, E. coli (E.coli ATCC strain 25922): 4,8 μg/ml
Minimal Inhibitory Concentration (MIC), Activity, P. aeruginosa [1]: 8,16 μg/ml
Minimal Inhibitory Concentration (MIC), Activity, S. aureus [2]: 8 µg/mL

SEQ ID NO: 24: biologically active amphiphilic peptide (GFGKFLGKALKAALKIGANLLGGTPQQ)
Minimal Inhibitory Concentration (MIC), Activity, E. coli (E.coli ATCC strain 25922): 8,16 μg/ml
Minimal Inhibitory Concentration (MIC), Activity, P. aeruginosa [1]: 16 µg/mL
Minimal Inhibitory Concentration (MIC), Activity, S. aureus [2]: 8 µg/mL

SEQ ID NO: 25: biologically active amphiphilic peptide (GFKKFLGKALKAALKIGANLLGGTPQQ)
Minimal Inhibitory Concentration (MIC), Activity, E. coli (E.coli ATCC strain 25922): 8,32 μg/ml
Minimal Inhibitory Concentration (MIC), Activity, P. aeruginosa [1]: 32 µg/mL
Minimal Inhibitory Concentration (MIC), Activity, S. aureus [2]: 8,16 μg/ml

SEQ ID NO: 26: biologically active amphiphilic peptide (GLASFLGKALKAALKIGANLLGGTPQQ)
Minimal Inhibitory Concentration (MIC), Activity, E. coli (E.coli ATCC strain 25922): 8,16 μg/ml
Minimal Inhibitory Concentration (MIC), Activity, P. aeruginosa [1]: 64,128 μg/ml
Minimal Inhibitory Concentration (MIC), Activity, S. aureus [2]: 16,32 μg/ml

SEQ ID NO: 27: biologically active amphiphilic peptide (GLASLLGKALKAALKIGANLLGGTPQQ)
Minimal Inhibitory Concentration (MIC), Activity, E. coli (E.coli ATCC strain 25922): 32 µg/mL
Minimal Inhibitory Concentration (MIC), Activity, P. aeruginosa [1]: 128 µg/mL
Minimal Inhibitory Concentration (MIC), Activity, S. aureus [2]: 32 µg/mL
